# From the supplement of paper PMC11208160
# Assay: recombinant UMI read abundance after kanamycin selection (control-corrected) (log10(CPM+1)); higher = more efficient recombination; extreme values may be limits of the assay; sequences stand for … in AGTGCAGAGAAAATCGGCCAGTTTTCTCTGCCTGCAGTCCGCATGCCGTGGGACCCCTTGGGTTCTAACCTGTTGCCTAGATTTATGCAGCGGACTGCCTTTCTCCCAAAGTGATAAACCGG…AGGTTGGTTTCACT; site = the 11-nt donor
# Method in brief: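 In a pooled Escherichia coli screen for the IS621 bridge recombinase, donor and donor-binding-loop pairs were each placed with a 12-nt UMI on a plasmid bearing a promoterless kanamycin gene. This library was co-electroporated with a target plasmid encoding a fixed target and T7-inducible recombinase, and cells were plated either on IPTG (0.07 mM) plus kanamycin or without selection, in two replicates each. Recombinant UMIs were PCR-amplified across the donor–target junction and sequenced, and counts were converted to CPM, averaged over replicates, scaled by control-derived factors and reported as log10(CPM+1).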
row,Sequence,recombinant UMI read abundance (log10)
1,GCCTGCCCATGGACCGGTTTTCCCGGTAATCCGTATTTGAT (site GCTTGCCCTAT),0.00989
2,GCGAAAACATGGACCGGTTTTCCCGGTAATCCGTATTTGAT (site GCGAAAACTAA),0
3,GCGAAAACATGGACCGGTTTTCCCGGTAATCCGTATTTGAT (site GCGAAAACTAC),0.0215
4,GCGAAAACATGGACCGGTTTTCCCGGTAATCCGTATTTGAT (site GCGAAAACTAG),0
5,GCGAAAACATGGACCGGTTTTCCCGGTAATCCGTATTTGAT (site GCGAAAACTAT),1.66
6,GCGAAAACATGGACCGGTTTTCCCGGTAATCCGTATTTGTT (site GCGAAAACTAA),2.31
7,GCGAAAACATGGACCGGTTTTCCCGGTAATCCGTATTTGTT (site GCGAAAACTAC),0
8,GCGAAAACATGGACCGGTTTTCCCGGTAATCCGTATTTGTT (site GCGAAAACTAG),1.18
9,GCGAAAACATGGACCGGTTTTCCCGGTAATCCGTATTTGTT (site GCGAAAACTAT),0
10,GCGAAACCATGGACCGGTTTTCCCGGTAATCCGTATTTGCT (site GCGAAAACTAG),0
11,GCGAAACCATGGACCGGTTTTCCCGGTAATCCGTATTTGCT (site GCGAAACCTAG),0
12,GCGAAACCATGGACCGGTTTTCCCGGTAATCCGTATTTGCT (site GCGAAAGCTAG),0
13,GCGAAACCATGGACCGGTTTTCCCGGTAATCCGTATTTGCT (site GCGAAATCTAG),0
14,GCGAAGCCATGGACCGGTTTTCCCGGTAATCCGTATTTGGT (site GCGAAGCCTAC),0.885
15,GCGAAGCCATGGACCGGTTTTCCCGGTAATCCGTATTTGGT (site GCGAAGCCTCC),0.00425
16,GCGAAGCCATGGACCGGTTTTCCCGGTAATCCGTATTTGGT (site GCGAAGCCTGC),0
17,GCGAAGCCATGGACCGGTTTTCCCGGTAATCCGTATTTGGT (site GCGAAGCCTTC),0.234
18,GCGAAGTCATGGACCGGTTTTCCCGGTAATCCGTATTTGGG (site GCGAAGACTCC),0.283
19,GCGAAGTCATGGACCGGTTTTCCCGGTAATCCGTATTTGGG (site GCGAAGCCTCC),0.0096
20,GCGAAGTCATGGACCGGTTTTCCCGGTAATCCGTATTTGGG (site GCGAAGGCTCC),0.019
21,GCGAAGTCATGGACCGGTTTTCCCGGTAATCCGTATTTGGG (site GCGAAGTCTCC),1.21
22,GCGACTACATGGACCGGTTTTCCCGGTAATCCGTATTTGGC (site GCGACTACTGC),1.97
23,GCGACTGCATGGACCGGTTTTCCCGGTAATCCGTATTTGCC (site GCAACTGCTGG),2

row,Sequence,recombinant UMI read abundance (log10)
1,GCGACTGCATGGACCGGTTTTCCCGGTAATCCGTATTTGCC (site GCCACTGCTGG),0.516
2,GCGACTGCATGGACCGGTTTTCCCGGTAATCCGTATTTGCC (site GCGACTGCTGG),1.65
3,GCGACTGCATGGACCGGTTTTCCCGGTAATCCGTATTTGCC (site GCTACTGCTGG),0
4,GCGATGCCATGGACCGGTTTTCCCGGTAATCCGTATTTGGG (site GCGAAGCCTCC),0.00846
5,GCGATGCCATGGACCGGTTTTCCCGGTAATCCGTATTTGGG (site GCGACGCCTCC),0.0196
6,GCGATGCCATGGACCGGTTTTCCCGGTAATCCGTATTTGGG (site GCGAGGCCTCC),0.0186
7,GCGATGCCATGGACCGGTTTTCCCGGTAATCCGTATTTGGG (site GCGATGCCTCC),0.0291
8,GCGCAAACATGGACCGGTTTTCCCGGTAATCCGTATTTGCT (site GCGAAAACTAG),0
9,GCGCAAACATGGACCGGTTTTCCCGGTAATCCGTATTTGCT (site GCGCAAACTAG),1.59
10,GCGCAAACATGGACCGGTTTTCCCGGTAATCCGTATTTGCT (site GCGGAAACTAG),0
11,GCGCAAACATGGACCGGTTTTCCCGGTAATCCGTATTTGCT (site GCGTAAACTAG),0
12,GCGCCCACATGGACCGGTTTTCCCGGTAATCCGTATTTGTG (site GCGCCCACTCA),0.0198
13,GCGCCTACATGGACCGGTTTTCCCGGTAATCCGTATTTGTT (site GCGCCTACTAA),0.013
14,GCGCGAGCATGGACCGGTTTTCCCGGTAATCCGTATTTGGG (site GCGCGAGCTCC),0.163
15,GCGCTCACATGGACCGGTTTTCCCGGTAATCCGTATTTGAT (site GAGCTCACTAT),0.12
16,GCGCTCACATGGACCGGTTTTCCCGGTAATCCGTATTTGAT (site GCGCTCACTAT),2.21
17,GCGCTCACATGGACCGGTTTTCCCGGTAATCCGTATTTGAT (site GGGCTCACTAT),0.00525
18,GCGCTCACATGGACCGGTTTTCCCGGTAATCCGTATTTGAT (site GTGCTCACTAT),0.28
19,GCGGAAGCATGGACCGGTTTTCCCGGTAATCCGTATTTGGT (site GCGGAAGCTAC),1.72
20,GCGGATGCATGGACCGGTTTTCCCGGTAATCCGTATTTGAA (site GCGGATGCTTT),2.38
21,GCGGCACCATGGACCGGTTTTCCCGGTAATCCGTATTTGCA (site GAGGCACCTTG),0.00511
22,GCGGCACCATGGACCGGTTTTCCCGGTAATCCGTATTTGCA (site GCGGCACCTTG),0
23,GCGGCACCATGGACCGGTTTTCCCGGTAATCCGTATTTGCA (site GGGGCACCTTG),0.008

row,Sequence,recombinant UMI read abundance (log10)
1,GCGGCACCATGGACCGGTTTTCCCGGTAATCCGTATTTGCA (site GTGGCACCTTG),0
2,GCGGCTACATGGACCGGTTTTCCCGGTAATCCGTATTTGTC (site GCGGCTACTGA),2.67
3,GCGGCTTCATGGACCGGTTTTCCCGGTAATCCGTATTTGTC (site GCGGCTTCTGA),1.81
4,GCGGGCACATGGACCGGTTTTCCCGGTAATCCGTATTTGTG (site GCGGGCACTCA),0.836
5,GCGGTGCCATGGACCGGTTTTCCCGGTAATCCGTATTTGGC (site GCGGTGCCTGC),0
6,GCGGTGTCATGGACCGGTTTTCCCGGTAATCCGTATTTGAA (site GCGGTGTCTTT),2.41
7,GCGTATTCATGGACCGGTTTTCCCGGTAATCCGTATTTGCC (site GCGTATTCTGG),2.14
8,GCGTATTCATGGACCGGTTTTCCCGGTAATCCGTATTTGTG (site GCGTATTCTCA),2.49
9,GCGTCGGCATGGACCGGTTTTCCCGGTAATCCGTATTTGGA (site GCGTCGGCTTC),0.519
10,GCGTGCCCATGGACCGGTTTTCCCGGTAATCCGTATTTGAT (site GCATGCCCTAT),0.417
11,GCGTGCCCATGGACCGGTTTTCCCGGTAATCCGTATTTGAT (site GCCTGCCCTAT),0.0179
12,GCGTGCCCATGGACCGGTTTTCCCGGTAATCCGTATTTGAT (site GCGTGCCCTAT),0.221
13,GCGTGCCCATGGACCGGTTTTCCCGGTAATCCGTATTTGAT (site GCTTGCCCTAT),0.0133
14,GCGTTCTCATGGACCGGTTTTCCCGGTAATCCGTATTTGAA (site GCGTTCTCTTT),2.47
15,GCTACCTCATGGACCGGTTTTCCCGGTAATCCGTATTTGGC (site GCTACCTCTGC),2.47
16,GCTACTGCATGGACCGGTTTTCCCGGTAATCCGTATTTGCA (site GCTACTGCTAG),0
17,GCTACTGCATGGACCGGTTTTCCCGGTAATCCGTATTTGCA (site GCTACTGCTCG),0.00835
18,GCTACTGCATGGACCGGTTTTCCCGGTAATCCGTATTTGCA (site GCTACTGCTGG),0
19,GCTACTGCATGGACCGGTTTTCCCGGTAATCCGTATTTGCA (site GCTACTGCTTG),2.78
20,GCTACTGCATGGACCGGTTTTCCCGGTAATCCGTATTTGCG (site GCTACTGCTAG),0.345
21,GCTACTGCATGGACCGGTTTTCCCGGTAATCCGTATTTGCG (site GCTACTGCTCG),1.27
22,GCTACTGCATGGACCGGTTTTCCCGGTAATCCGTATTTGCG (site GCTACTGCTGG),0
